From patent US20150322406A1, “METHOD FOR REPROGRAMMING SOMATIC CELLS TO PANCREATIC BETA CELLS” (CANCER RESEARCH TECHNOLOGY LIMITED, priority 2012, published 2015)

Test system: NGN3-HA overexpressed in 293T cells
Assay: Western blot analysis of overexpressed NGN3-HA in 293T cells upon GSK3 inhibitor
Assay type: cell-based
Conditions: HEK293T cells overexpressing NGN3-HA, treated with GSK3β inhibitor; Western blot (FIG. 6b)
Source text: (A) Schematic representation of the proposed mechanism of NGN3 degradation by Fbw7. (B) Western Blot analysis of overexpressed NGN3-HA in 293T cells upon GSK3 inhibitor. (C) Schematic representation of NGN3 GSK3 phosphorylation residues and the different NGN3 phospho-mutant construct generated. (D) NGN3-HA/Fbw7-Flag Immunoprecipitation assay using the different NGN3 constructs indicated in C. (E) Western Blot analysis of NGN3 in cells overexpressing the different NGN3 construct indicated in C. HEK293T cells were cultured in DMEM and 10% FBS. Cells were plated at subconfluence and transfected with Lipofectamine Reagent (Invitrogen) following the manufacturer instructions. HEK293T cells lysates or tissues were homogenized in RIPA lysis buffer supplemented with protease inhibitor (Sigma). Immunoblots were carried out as previously described^4. The gels were transferred to nitrocellulose membranes, and the membranes were immunoblotted with various antibodies as indicated: anti-NGN3, anti-flag, anti-HA, and anti-Myc. The conversion of pancreatic ductal cells into β-cells observed in the RFY mice in vivo could be due to up-regulation of substrates involved in beta cell neogenesis in the adult pancreas. […] To test whether Fbw7 had any effect on NGN3 protein stability (see FIG. 6a), a set of in vitro experiments were conducted. […]

Structure (SMILES): Cn1cc(C2=C(c3ccc(Cl)cc3Cl)C(=O)NC2=O)c2ccccc21 [SB216763]
- NGN3 protein stability: increased
